≈ marks a conversion by molar mass, not a printed value.
Assays:
HRV10 (204-CV14) = test: Anti-rhinovirus spectrum (MTT), HRV10; format: cell-based, human rhinovirus; parameters: Anti-Rhinovirus activity, HRV10: unit not given here
HRV61 (6669-CV39) = test: Anti-rhinovirus spectrum (MTT), HRV61; format: cell-based, human rhinovirus; parameters: Anti-Rhinovirus activity, HRV61: unit not given here
HRV39 (209) = test: Anti-rhinovirus spectrum (MTT), HRV39; format: cell-based, human rhinovirus; parameters: Anti-Rhinovirus activity, HRV39: unit not given here
HRV16 (11757) = test: Anti-rhinovirus spectrum (MTT), HRV16; format: cell-based, human rhinovirus; parameters: Anti-Rhinovirus activity, HRV16: unit not given here
HRV21 (47) = test: Anti-rhinovirus spectrum (MTT), HRV21; format: cell-based, human rhinovirus; parameters: Anti-Rhinovirus activity, HRV21: unit not given here
[1] = tested on: clinical isolate (89229T); test: microbe, parasite or virus in culture; format: cell-based, human rhinovirus; parameters: Anti-Rhinovirus activity, Clinical isolated strain: unit not given here
HRV32 (363) = test: Anti-rhinovirus spectrum (MTT), HRV32; format: cell-based, human rhinovirus; parameters: Anti-Rhinovirus activity, HRV32: unit not given here
HRV50(A2#58) = test: Anti-rhinovirus spectrum (MTT), HRV50; format: cell-based, human rhinovirus; parameters: Anti-Rhinovirus activity, HRV50: unit not given here
HRV14 (1059) = test: Anti-rhinovirus activity (MTT), HRV14; format: cell-based, human rhinovirus; parameters: Anti-Rhinovirus activity, HRV14: unit not given here
HRV13 (353) = test: Anti-rhinovirus spectrum (MTT), HRV13; format: cell-based, human rhinovirus; parameters: Anti-Rhinovirus activity, HRV13: unit not given here
HRV1A (E28) = test: Anti-rhinovirus activity (MTT), HRV1A; format: cell-based, human rhinovirus; parameters: Anti-Rhinovirus activity, HRV1A: unit not given here
HRV3(FEB) = test: Anti-rhinovirus spectrum (MTT), HRV3; format: cell-based, human rhinovirus; parameters: Anti-Rhinovirus activity, HRV3: unit not given here
HeLa (Ohio strain)cells = test: Cytotoxicity (MTT, without virus), HeLa(Ohio); conditions: HeLa(Ohio), no virus, incubated for 4 days
[2] = tested on: human rhinovirus type 1B (HRV 1B, B632); test: Anti-rhinovirus activity (MTT), HRV1B; format: cell-based; parameters: Anti-Rhinovirus activity, HRV1B: unit not given here; conditions: for IC50 HRV1B: HeLa (Ohio strain) cells, MTT method, 33° C.
HRV8(MRH) = test: Anti-rhinovirus spectrum (MTT), HRV8; format: cell-based, human rhinovirus; parameters: Anti-Rhinovirus activity, HRV8: unit not given here
HRV41 (56110) = test: Anti-rhinovirus spectrum (MTT), HRV41; format: cell-based, human rhinovirus; parameters: Anti-Rhinovirus activity, HRV41: unit not given here
HRV36 (342H) = test: Anti-rhinovirus spectrum (MTT), HRV36; format: cell-based, human rhinovirus; parameters: Anti-Rhinovirus activity, HRV36: unit not given here
HRV31 (41F) = test: Anti-rhinovirus spectrum (MTT), HRV31; format: cell-based, human rhinovirus; parameters: Anti-Rhinovirus activity, HRV31: unit not given here
HRV 2 (HGP) = test: Anti-rhinovirus activity (MTT), HRV2; format: cell-based, human rhinovirus; parameters: Anti-Rhinovirus activity, HRV2: unit not given here; conditions: for IC50 HRV2: HeLa (Ohio strain) cells, MTT method, 33° C.
HRV29 (5582) = test: Anti-rhinovirus spectrum (MTT), HRV29; format: cell-based, human rhinovirus; parameters: Anti-Rhinovirus activity, HRV29: unit not given here
HRV5 = test: Anti-rhinovirus spectrum (MTT), HRV5; format: cell-based, human rhinovirus; parameters: Anti-Rhinovirus activity, HRV5: unit not given here
HRV33 (1200) = test: Anti-rhinovirus spectrum (MTT), HRV33; format: cell-based, human rhinovirus; parameters: Anti-Rhinovirus activity, HRV33: unit not given here
HRV 89 (41617-Gallo) = test: Anti-rhinovirus activity (MTT), HRV89; format: cell-based, human rhinovirus; parameters: Anti-Rhinovirus activity, HRV89: unit not given here; conditions: for IC50 HRV89: HeLa (Ohio strain) cells, MTT method, 33° C.
[3] = tested on: echovirus type 11 (Echo 11, Gregory); test: In vitro anti-picornavirus activity (MTT), Echo 11; format: cell-based; conditions: HeLa-S3 cells, MTT method, 37° C.
[4] = tested on: Poliovirus type 1 (Polio 1, Sabin); test: microbe, parasite or virus in culture; format: cell-based
[5] = tested on: coxsackievirus type A7 (CA7); test: In vitro anti-picornavirus activity (MTT), CA7; format: cell-based; conditions: HeLa-S3 cells, MTT method, 37° C.
[6] = tested on: coxsackievirus type B4 (CB4,JVB); test: In vitro anti-picornavirus activity (MTT), CB4; format: cell-based; conditions: HeLa cells, MTT method, 37° C.
HeLa cells = test: Cytotoxicity (MTT, without virus), HeLa; conditions: HeLa, no virus, incubated for 4 days
HeLa-S3 cells = test: Cytotoxicity (MTT, without virus), HeLa-S3; conditions: HeLa-S3, no virus, incubated for 4 days
[7] = HeLa (Ohio strain) cells, MTT method, 33° C.

Cc1c(-c2ccccc2)n(-c2cccc(F)c2)c2ccc(C(C)C)cc2c1=O [Compound A322]
Anti-Rhinovirus activity, HRV10 (HRV10 (204-CV14); Table VII, rhinovirus serotype HRV10): 0.013 | Anti-Rhinovirus activity, HRV61 (HRV61 (6669-CV39); Table VII, rhinovirus serotype HRV61): 0.29 | Anti-Rhinovirus activity, HRV39 (HRV39 (209); Table VII, rhinovirus serotype HRV39): 0.012 | Anti-Rhinovirus activity, HRV16 (HRV16 (11757); Table VII, rhinovirus serotype HRV16): 0.030 | Anti-Rhinovirus activity, HRV21 (HRV21 (47); Table VII, rhinovirus serotype HRV21): 0.048 | Anti-rhinovirus activity Clinically isolated strain ([1]; Table VII, clinical isolate (89229T)): 0.017 | Anti-Rhinovirus activity, HRV32 (HRV32 (363); Table VII, rhinovirus serotype HRV32): 0.020 | Anti-Rhinovirus activity, HRV50 (HRV50(A2#58); Table VII, rhinovirus serotype HRV50): 0.023 | Anti-Rhinovirus activity, HRV14 (HRV14 (1059); Table VII, rhinovirus serotype HRV14): >1.0 | Anti-Rhinovirus activity, HRV13 (HRV13 (353); Table VII, rhinovirus serotype HRV13): 0.029 | Anti-Rhinovirus activity, HRV1A (HRV1A (E28); Table VII, rhinovirus serotype HRV1A, same method as above): >1.0 | Anti-Rhinovirus activity, HRV3 (HRV3(FEB); Table VII, rhinovirus serotype HRV3): >1.0 | Cytotoxicity CC50 HeLa(Ohio) (HeLa (Ohio strain)cells): >1 µg/mL | IC50 HRV1B [2]: 0.18 µg/mL (≈ 0.485 µM) | Anti-Rhinovirus activity, HRV1B ([2]; Table VII, rhinovirus serotype HRV1B): 0.18 | Anti-Rhinovirus activity, HRV8 (HRV8(MRH); Table VII, rhinovirus serotype HRV8): >1.0 | Anti-Rhinovirus activity, HRV41 (HRV41 (56110); Table VII, rhinovirus serotype HRV41): 0.034 | Anti-Rhinovirus activity, HRV36 (HRV36 (342H); Table VII, rhinovirus serotype HRV36): 0.085 | Anti-Rhinovirus activity, HRV31 (HRV31 (41F); Table VII, rhinovirus serotype HRV31): 0.045 | IC50 HRV2 (HRV 2 (HGP)): 0.030 µg/mL (≈ 0.0808 µM) | Anti-Rhinovirus activity, HRV2 (HRV 2 (HGP); Table VII, rhinovirus serotype HRV2): 0.030 | Anti-Rhinovirus activity, HRV29 (HRV29 (5582); Table VII, rhinovirus serotype HRV29): 0.080 | Anti-Rhinovirus activity, HRV5 (HRV5; Table VII, rhinovirus serotype HRV5): >1.0 | Anti-Rhinovirus activity, HRV33 (HRV33 (1200); Table VII, rhinovirus serotype HRV33): 0.17 | IC50 HRV89 (HRV 89 (41617-Gallo)): 0.034 µg/mL (≈ 0.0915 µM) | Anti-Rhinovirus activity, HRV89 (HRV 89 (41617-Gallo); Table VII, rhinovirus serotype HRV89): 0.034

CCn1c2c(c(=O)c3cc(C(C)C)ccc31)Cc1ccccc1-2.Cl [Compound B3]
IC50 Echo 11 [3]: 0.35 µg/mL | IC50 Polio 1 [4]: 0.72 µg/mL | IC50 CA7 [5]: 2.1 µg/mL | IC50 CB4 [6]: 0.82 µg/mL | Anti-Rhinovirus activity, HRV10 (HRV10 (204-CV14); HRV10): 1.8 | Cytotoxicity CC50 HeLa (HeLa cells): >4 µg/mL | Anti-Rhinovirus activity, HRV61 (HRV61 (6669-CV39); HRV61): 0.80 | Anti-Rhinovirus activity, HRV39 (HRV39 (209); HRV39): 1.7 | Anti-Rhinovirus activity, HRV16 (HRV16 (11757); HRV16): 2.3 | Anti-Rhinovirus activity, HRV21 (HRV21 (47); HRV21): 0.20 | Anti-Rhinovirus activity, Clinical isolated strain ([1]; Clinical isolated strain): 1.9 | Anti-Rhinovirus activity, HRV32 (HRV32 (363); HRV32): 0.61 | Anti-Rhinovirus activity, HRV50 (HRV50(A2#58); HRV50): 0.20 | Anti-Rhinovirus activity, HRV14 (HRV14 (1059); HRV14): 0.74 | IC50 HRV 14 (HRV14 (1059); [7]): 0.74 µg/mL | Anti-Rhinovirus activity, HRV13 (HRV13 (353); HRV13): 0.17 | Anti-Rhinovirus activity, HRV1A (HRV1A (E28); HRV1A): 2.6 | IC50 HRV 1A (HRV1A (E28); [7]): 2.6 µg/mL | Anti-Rhinovirus activity, HRV3 (HRV3(FEB); HRV3): 2.9 | Cytotoxicity CC50 HeLa(Ohio) (HeLa (Ohio strain)cells): >4 µg/mL | Anti-Rhinovirus activity, HRV1B ([2]; HRV1B): 0.30 | IC50 HRV1B [2]: 0.30 µg/mL | Anti-Rhinovirus activity, HRV8 (HRV8(MRH); HRV8): 0.46 | Anti-Rhinovirus activity, HRV41 (HRV41 (56110); HRV41): 0.20 | Anti-Rhinovirus activity, HRV36 (HRV36 (342H); HRV36): 0.30 | Cytotoxicity CC50 HeLa-S3 (HeLa-S3 cells): >4 µg/mL | Anti-Rhinovirus activity, HRV31 (HRV31 (41F); HRV31): 0.29 | Anti-Rhinovirus activity, HRV2 (HRV 2 (HGP); HRV2): 0.54 | IC50 HRV2 (HRV 2 (HGP)): 0.54 µg/mL | Anti-Rhinovirus activity, HRV29 (HRV29 (5582); HRV29): 1.5 | Anti-Rhinovirus activity, HRV5 (HRV5; HRV5): 0.36 | Anti-Rhinovirus activity, HRV33 (HRV33 (1200); HRV33): 0.20 | Anti-Rhinovirus activity, HRV89 (HRV 89 (41617-Gallo); HRV89): 0.57 | IC50 HRV89 (HRV 89 (41617-Gallo)): 0.57 µg/mL

Reference: patent publication US7109338B2, “1,2-disubstituted 1,4-dihydro-4-oxoquinoline compounds” (priority 1999, dated 2006)
